How the values were obtained:
Gdx-Clo = system: T1, Gdx-Clo; experiment: […]-Gdm+ uptake and SSM electrophysiology, proteoliposomes; assay type: biochemical, Clostridiales bacterium oral taxon 876; details: 20 µM 14C-Gdm+ or 1 mM (SSM); pH 7.5; labelled compound
T1 construct: gene HMPREF1982_00479; full-length; C-terminal His6 tag with LysC site, tag cleaved by LysC; expressed in E. coli C41(DE3); antiparallel homodimer

EmrE [1] = target: T2, EmrE (Escherichia coli, UniProt P23895); experiment: […]-methyl viologen uptake into proteoliposomes; assay type: biochemical; details: 7 µM 14C-methyl viologen; pH 7.5; labelled compound
T2 construct: full-length; N-terminal His6 tag with thrombin site; expressed in E. coli; homodimer; reconstituted in proteoliposomes

EmrE [2] = target: T2, EmrE; experiment: SSM electrophysiology, proteoliposomes; assay type: biochemical; details: 1 mM; pH 7.5; reference compound for normalisation

T2 sequence (P23895 whole entry): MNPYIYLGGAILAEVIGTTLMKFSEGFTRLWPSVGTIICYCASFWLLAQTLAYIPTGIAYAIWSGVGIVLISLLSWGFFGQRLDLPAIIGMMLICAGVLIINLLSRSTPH
T1 sequence (U2EQ00 entry or part of it): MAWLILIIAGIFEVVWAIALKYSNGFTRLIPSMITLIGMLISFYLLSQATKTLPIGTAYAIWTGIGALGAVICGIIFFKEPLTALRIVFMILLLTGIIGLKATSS

With N=C(N)N [Gdm^+] the “14C-Gdm+ uptake and SSM electrophysiology, proteoliposomes” value (Gdx-Clo) was “Gdx-Clo transports Gdm^+, but not methyl viologen”.

In the case of C[n+]1ccc(-c2cc[n+](C)cc2)cc1 [methyl viologen], the “14C-methyl viologen uptake into proteoliposomes” value (EmrE [1]) is reported as “EmrE transports methyl viologen, but not Gdm^+”.

With N=C(N)Nc1ccccc1 [phenylGdm^+] the “SSM electrophysiology, proteoliposomes” value (EmrE [2]) was “methyl-, ethyl-, and phenylGdm^+ evoked increasingly larger currents”.

— publication PMC7695847, “The structural basis of promiscuity in small multidrug resistance transporters” (Nature Communications, 2020)
